The source of these data is patent publication US20230399368A1, “CARRIER PEPTIDE FRAGMENT AND USE THEREOF” (TOAGOSEI CO., LTD., priority 2020, published 2023).

The test system of the assay is HeLa cells. The assay is described as follows: Evaluation of the cell membrane permeability by flow cytometry (FAM fluorescence) in HeLa cell culture. It counts as cell-based, human. Particulars: for MFI (mean fluorescent intensity): 10 μM in culture medium, 0.5% DMSO, 20 hours incubation at 37° C., detector FL2, mean value of triplicate; for introduction of the fluorescent dye (FAM) into the cytoplasm, shift of the flow cytometry histogram on the X-axis (FIG. 1): compared with Example 3 (only FAM) or Example 2. How it is done: The cell membrane permeability of sample 1 and sample 2 was evaluated using HeLa cells (an established cell line derived from human cervical cancer cells) as the eukaryotic cells.
HeLa cells were cultured on DMEM (Dulbecco's modified Eagle's medium (Cat. No. 043-30085, from FUJIFILM Wako Pure Chemical Corporation)) containing 10% FBS (fetal bovine serum), which is a general culture medium.
The HeLa cells attached to the culture plate were washed with PBS, a 0.25% trypsin/EDTA solution was then added, and incubation was carried out for 3 minutes at 37° C. After this incubation, the aforementioned DMEM containing 10% FBS was added and the trypsin was inactivated, and the cells were then sedimented by carrying out centrifugal separation for 5 minutes at 150×g. The supernatant produced by the centrifugal separation was removed, and the aforementioned DMEM containing 10% FBS was added to the sediment (cell pellet) to prepare a cell suspension containing approximately 1×10^5 cells/mL. The cells were seeded (approximately 2×10^5 cells/well) by the addition of 2 mL of this cell suspension to the wells of a commercial 6-well plate (Iwaki). The cells were attached to the well bottom by culture for 3 hours at 37° C. under the condition of 5% CO2. In order to perform the evaluation of the cell membrane permeability in triplicate, the cells were seeded to three wells for the test of Example 1 and the following procedure was performed on each well.
The 2 mM sample solution 1 was then diluted with the aforementioned DMEM containing 10% FBS to prepare a sample solution 1 in which the sample 1 concentration was 20 μM. After the aforementioned 3-hour culture, 1 mL of the culture supernatant was removed from the well, followed by the addition to the well of 1 mL of the 20 μM sample solution 1 (i.e., the concentration of sample 1 in the culture medium in the well was brought to 10 μM and the DMSO concentration was brought to 0.5%). The cells were incubated for 20 hours at 37° C. under the condition of 5% CO2. After this 20-hour incubation, the culture supernatant was removed from the well and the cells in the well were washed twice with 1 mL PBS. 200 μL of a 0.25% trypsin/EDTA solution was then added to the well and incubation was carried out for 3 minutes at 37° C. After this incubation, the trypsin was inactivated by the addition of 400 μL of the aforementioned DMEM containing 10% FBS to the well, and the cells were subsequently recovered by transferring the cell suspension in the well to a tube. The well was then washed by the further addition of 600 μL PBS to the well. The cells that had remained in the well were recovered to the tube by transferring the PBS in the well to the tube. Centrifugal separation was run on this tube for 5 minutes using conditions of 4° C. and 210×g. After the centrifugal separation, the supernatant was removed, the sediment (cell pellet) was suspended (washed) with 1 mL of PBS, and centrifugal separation was carried out using the same conditions as before. After this procedure had been performed twice, the supernatant was removed to obtain cells (cell pellet) that had been cultured on a sample 1-containing culture medium.
The cell membrane permeability of sample 1 was evaluated using the resulting cells (cell pellet) and a flow cytometer. An On-Chip Flow Cytometer (On-chip Biotechnologies Co., Ltd.) was used for the flow cytometer.
For this analysis, the cell pellet obtained as described above was suspended in 50 μL PBS. To this suspension was added 50 μL of Sample Buffer 2× for use with the indicated flow cytometer to prepare a cell suspension for submission to analysis.
Gating was performed using this flow cytometer based on forward scatter (FSC) and side scatter (SSC); the gating was set for the cell population that was the target of the analysis; and the fluorescent intensity was measured for the cell population within this gating. The analysis was performed so this cell population reached at least 5,000 or more. […]

“Also recorded” adds a separate entry of the source. FAM = fluorescent dye FAM

Regarding “FAM-MAPRGFSCLLLLTSEIDLPVKRRA-COOH ({FAM}-MAPRGFSCLLLLTSEIDLPVKRRA-OH; listed as Homo sapiens) [Example 1]”, the “MFI (mean fluorescent intensity)” value turned out to be 33.7. In addition, the “introduction of the fluorescent dye (FAM) into the cytoplasm, shift of the flow cytometry histogram on the X-axis (FIG. 1)” value (10 μM, 20 hours incubation) is recorded as “more efficiently introduced; also recorded: shifted more to the right on the X-axis than was the histogram for Example 2”. In addition, the “efficiency (cell membrane permeability) compared using the MFI, Example 1 versus Example 2” value (10 μM, 20 hours incubation, ratio of MFI of Table 3) is reported as “approximately twice as high”.
Take “5(6)-carboxyfluorescein [Example 3, reference compound]”: the “MFI (mean fluorescent intensity)” value was found to be 6.
As for “FAM-KKRTLRKNDRKKR-CONH2 ({FAM}-KKRTLRKNDRKKR-NH2) [Example 2, reference compound]”, the “MFI (mean fluorescent intensity)” value worked out at 15.5. The “introduction of the fluorescent dye (FAM) into the cytoplasm, shift of the flow cytometry histogram on the X-axis (FIG. 1)” value (10 μM, 20 hours incubation) is on record as “more efficiently introduced”.
